The subject of experiment [1] is NCI-H1703 cells. Put plainly: GLS Cell Proliferation Assay (NCI-H1703 cell proliferation). The format is cell-based. The text has this:
(§1) The following assays were used to measure the effects of the compounds described herein: a) GLS Enzyme Potency Assay; b) GLS Cell Potency Assay; c) GLS Cell Proliferation Assay. During the description of the assays, generally: • i. The following abbreviations have been used: CO2=Carbon dioxide; DMEM=Dulbecco's Modified Eagle Medium; DMSO=Dimethyl sulphoxide; EDTA=Ethylenediaminetetraacetic acid; EGTA=Ethylene glycol tetraacetic acid; FCS=Foetal calf serum; h=Hour(s); NBS=Non-binding surface; SDS=Sodium dodecyl sulphate; TRIS=Tris(Hydroxymethyl)aminomethane. • ii. IC50 values were calculated using a smart fitting model in Genedata.
Assay c): GLS Cell Proliferation Assay
The ability of compounds to inhibit cell growth was measured using a 384 well plate NCI-H1703 cell proliferation assay. NCI-H1703 cells were grown in phenol red free RPMI1640, 10% FCS and 2 mM glutamine and seeded at a density of 750 cells per well in 40 μl of growth medium into clear-bottom 384 well assay plates (Corning product code 3712) and incubated for 24 h at 37° C., 5% CO2. Test compounds were prepared by dilution in 100% DMSO to give the correct dose range for 12 point concentration response and an appropriate volume (5-120 nl) dispensed directly into the assay plates containing plated cells. DMSO concentration was maintained at 0.3% by back filling with DMSO solution. Plates were incubated for 5 days at 37° C., 5% CO2, Sytox Green and Saponin added to final concentration of 2 μM and 0.25% respectively and incubated for 6 h prior to analysis. Plates were read on an Acumen eX3 (TTP Labtech) using 488 nm excitation and FITC filter set (500-530 nm) for emission. IC50 values were calculated by curve fitting to max inhibition of day zero growth using GeneData software analysis.

Experiment [2] addresses cellular GLS activity (Homo sapiens (Human), UniProt O94925). Put plainly: GLS Cell Potency Assay (PC3 coupled assay measuring cellular glutamate depletion). In kind it is cell-based. The settings on record: PC3 cells, 6 h incubation, glutamate depletion; read-out: Assay b) GLS cell MOA Mean IC50.
Text: as §1
Assay b): GLS Cell Potency Assay
Compounds were assessed for their potential to inhibit cellular GLS activity by use of a PC3 coupled assay measuring cellular glutamate depletion. […] DMSO concentration was maintained at 0.3% by back filling with DMSO solution. PC3 cells were grown in phenol free DMEM, 10% dialyzed FCS, 2 mM glutamine and following dispersal by trypsinisation were plated at 5.6×10^3 cells per well in 40 μl of growth medium directly into the 384 well assay plates containing dispensed compound. After incubation for 6 h at 37° C., 5% CO2 growth media was aspirated and cells lysed in 15 μl of buffer containing 10 mM TRIS pH7.4, 100 mM NaCl, 1 mM EDTA, 1 mM EGTA, 1 mM NaF, 20 mM Na4P2O7, 2 mM Na3VO4, 1% Triton X-100, 10% glycerol, 0.1% SDS and 0.5% deoxycholate.

Experiment [3] concerns the target GLS1 (Homo sapiens (Human), UniProt O94925). Put plainly: GLS Enzyme Potency Assay (Glutamate Oxidase/AmplexRed coupled assay). In kind it is biochemical. The note with it: 6His tagged GLS protein (amino acids 63-669), glutamine substrate; read-out: Assay a) enz IC50.
Text: as §1
Assay a): GLS Enzyme Potency Assay
A Glutamate Oxidase/AmplexRed coupled assay was used to measure the ability of compounds to bind to and inhibit the activity of GLS1 in vitro. […] GLS1 was diluted to 2× working concentration and incubated at room temperature to allow the tetrameric/dimeric forms to reach steady state. Assay measurements were performed in buffer comprising 50 mM TRIS pH 7.8, 100 mM NaPO4, pH 7.8, 0.001% v/v Tween20. Purified recombinant GLS1 protein was diluted in assay buffer to 12 nM and pre-incubated at room temperature for 30 minutes. […] DMSO concentration was maintained at 2% by back filling with DMSO solution. 3 μL of diluted GLS1 protein (12 nM) was then dispensed into each well using a BioRaptr automated dispenser (Beckman-Coulter) and incubated for 15 minutes at room temperature. 3 μL of 100 mM glutamine diluted in assay buffer was then added and the reaction incubated at room temperature for 60 minutes. […] An artefact version of the assay where the 6His tagged GLS protein and glutamine were replaced with assay buffer was also used to rule out non specific effects on the assay components.

[4] abbreviates: NCI-H1703 cells, 5 days; read-out: Assay c) Prolif Mean IC50.
Setting [5] is: Homo sapiens, NCI-H1703, 120 h, NCI-H1703 cells, 5 days; read-out: Assay c) Prolif Mean IC50.

Where two headings read alike, the source gives them in different places.

Chain of cellular GLS activity (O94925 73-669): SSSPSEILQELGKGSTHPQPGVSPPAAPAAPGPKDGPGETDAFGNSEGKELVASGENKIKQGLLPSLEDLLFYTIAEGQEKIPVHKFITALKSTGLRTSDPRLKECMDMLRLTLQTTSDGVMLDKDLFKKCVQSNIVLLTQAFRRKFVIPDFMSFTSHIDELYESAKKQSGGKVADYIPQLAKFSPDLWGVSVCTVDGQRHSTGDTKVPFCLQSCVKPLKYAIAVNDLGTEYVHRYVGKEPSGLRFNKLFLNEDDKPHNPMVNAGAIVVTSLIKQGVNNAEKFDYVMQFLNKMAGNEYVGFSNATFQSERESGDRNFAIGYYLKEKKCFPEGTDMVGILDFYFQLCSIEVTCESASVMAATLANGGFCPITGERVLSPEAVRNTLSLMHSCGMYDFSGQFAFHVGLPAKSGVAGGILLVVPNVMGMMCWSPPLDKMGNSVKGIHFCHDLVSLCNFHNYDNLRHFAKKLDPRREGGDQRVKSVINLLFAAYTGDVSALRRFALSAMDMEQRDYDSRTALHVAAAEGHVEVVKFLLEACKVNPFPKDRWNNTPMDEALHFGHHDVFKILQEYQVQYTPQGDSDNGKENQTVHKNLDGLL
Chain of GLS1 (O94925 63-669): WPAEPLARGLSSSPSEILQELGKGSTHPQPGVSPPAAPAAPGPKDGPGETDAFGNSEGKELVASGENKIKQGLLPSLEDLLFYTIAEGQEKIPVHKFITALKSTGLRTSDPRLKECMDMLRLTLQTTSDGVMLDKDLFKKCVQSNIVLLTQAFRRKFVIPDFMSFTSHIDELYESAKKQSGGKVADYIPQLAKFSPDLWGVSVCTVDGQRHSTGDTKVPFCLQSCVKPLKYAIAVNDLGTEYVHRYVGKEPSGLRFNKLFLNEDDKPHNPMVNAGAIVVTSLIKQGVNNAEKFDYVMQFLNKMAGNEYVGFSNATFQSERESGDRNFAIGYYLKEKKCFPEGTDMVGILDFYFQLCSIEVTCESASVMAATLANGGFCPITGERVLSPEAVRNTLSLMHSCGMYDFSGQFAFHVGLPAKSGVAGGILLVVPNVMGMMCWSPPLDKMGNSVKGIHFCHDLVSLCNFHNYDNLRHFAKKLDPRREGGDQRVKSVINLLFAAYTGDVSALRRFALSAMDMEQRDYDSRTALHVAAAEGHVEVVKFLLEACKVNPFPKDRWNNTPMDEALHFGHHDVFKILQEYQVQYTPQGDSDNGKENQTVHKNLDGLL

The IC50 is the point on the concentration scale where inhibition reaches its midpoint. For `COc1ccc(C(OC)C(=O)Nc2nnc(N[C@@H]3CCN(c4ccc(F)nn4)C3)s2)cc1` (single isomer, unassigned) [Example 21], the IC50 in experiment [1] (setting [4]) is 930 nM; in experiment [2], 53.7 nM; in experiment [3], 223 nM.
Consider `COc1ccc(C(OC)C(=O)Nc2nnc(N[C@@H]3CCN(c4ccc(F)nn4)C3)s2)cc1` (single isomer, unassigned) [Example 22], for which the values for the IC50 in experiment [1] (setting [4]), in experiment [2] and in experiment [3] were 36.9 nM, 2.45 nM and 18.9 nM, respectively.
The corresponding values for `COc1cc(C(OC)C(=O)Nc2nnc(N[C@@H]3CCN(c4ccc(F)nn4)C3)s2)ccc1F` (single isomer, unassigned) [Example 23] are 106 nM, 197 nM and 265 nM.
On the same counts, the results for `COc1cc(C(OC)C(=O)Nc2nnc(N[C@@H]3CCN(c4ccc(F)nn4)C3)s2)ccc1F` (single isomer, unassigned) [Example 24] are 11.6 nM, 1.01 nM and 71.3 nM.
The corresponding values for `CCOC(C(=O)Nc1nnc(N[C@@H]2CCN(c3ccc(F)nn3)C2)s1)c1ccc(F)cc1` (single isomer, unassigned) [Example 25] are 686 nM, 63.2 nM and 1090 nM.
For the compound `CCOC(C(=O)Nc1nnc(N[C@@H]2CCN(c3ccc(F)nn3)C2)s1)c1ccc(F)cc1` (single isomer, unassigned) [Example 26], the IC50 in experiment [1] (setting [4]) came to 21.9 nM; in experiment [2], 2.12 nM; in experiment [3], 94.8 nM.
On the same counts, the results for `CCOC(C(=O)Nc1nnc(N[C@@H]2CCN(c3ccc(C)nn3)C2)s1)c1ccc(F)cc1` (single isomer, unassigned) [Example 27] are 1220 nM, 72.2 nM and 2380 nM.
Regarding `CCOC(C(=O)Nc1nnc(N[C@@H]2CCN(c3ccc(C)nn3)C2)s1)c1ccc(F)cc1` (single isomer, unassigned) [Example 28], the 50% inhibitory concentration (IC50) in experiment [1] (setting [4]) was determined as 73.2 nM; in experiment [2], 3.57 nM; in experiment [3], 96 nM.
Take `COc1ccc([C@H](OC)C(=O)Nc2nnc(N[C@@H]3CCN(c4cc(C)cnn4)C3)s2)cc1` (single isomer, unassigned) [Example 33(a)]: the values for the IC50 in experiment [1] (setting [4]), in experiment [2] and in experiment [3] were 18.9 nM, 19.2 nM and 148 nM, respectively.
Take `CO[C@H](C(=O)Nc1nnc(N[C@@H]2CCN(c3ccc(F)nn3)C2)s1)c1ccccc1` [Example 2, (2S)-N-[5-[[(3R)-1-(6-Fluoropyridazin-3-yl)pyrrolidin-3-yl]amino]-1,3,4-thiadiazol-2-yl]-2-methoxy-2-phenyl-acetamide]: the results for the IC50 in experiment [1] (setting [5]), in experiment [2] and in experiment [3] were 16.7 nM, 0.965 nM and 30.3 nM, respectively.
The corresponding values for `CO[C@H](C(=O)Nc1nnc(N[C@@H]2CCN(c3cc(Cl)cnn3)C2)s1)c1ccccc1` [Example 12, (2S)-N-[5-[[(3R)-1-(5-Chloropyridazin-3-yl)pyrrolidin-3-yl]amino]-1,3,4-thiadiazol-2-yl]-2-methoxy-2-phenyl-acetamide] are 3.07 nM, 0.451 nM and 35.3 nM.
As for `CO[C@H](C(=O)Nc1nnc(N[C@@H]2CCN(c3cc(C)cnn3)C2)s1)c1ccccc1` [Example 13, (2S)-2-Methoxy-N-[5-[[(3R)-1-(5-methylpyridazin-3-yl)pyrrolidin-3-yl]amino]-1,3,4-thiadiazol-2-yl]-2-phenyl-acetamide], the IC50 in experiment [1] (setting [5]) is 8.48 nM; in experiment [2], 0.658 nM; in experiment [3], 59.2 nM.
On the same counts, the results for `CO[C@H](C(=O)Nc1nnc(N[C@@H]2CCN(c3ccc(C)nn3)C2)s1)c1ccccc1` [Example 14, (2S)-2-methoxy-N-[5-[[(3R)-1-(6-methylpyridazin-3-yl)pyrrolidin-3-yl]amino]-1,3,4-thiadiazol-2-yl]-2-phenyl-acetamide] are 22.7 nM, 1.04 nM and 44.3 nM.
Take `COc1ccc(C(OC)C(=O)Nc2nnc(N[C@@H]3CCN(c4ccc(C)nn4)C3)s2)cc1` (stereo partly drawn) [Example 30, 2-methoxy-2-(4-methoxyphenyl)-N-[5-[[(3R)-1-(6-methylpyridazin-3-yl)pyrrolidin-3-yl]amino]-1,3,4-thiadiazol-2-yl]acetamide]: the IC50 in experiment [1] (setting [4]) amounted to 43.7 nM; in experiment [2] it was 5.29 nM; in experiment [3], 119 nM.

The values above are taken from US9938265B2, “1,3,4-thiadiazole compounds and their use in treating cancer” (AstraZeneca AB, priority 2015, dated 2018).
